In patent US8637050B2, “Peptide vaccines against group A streptococci” (The United States of America, as represented by the …, priority 2001, dated 2014):

Tested on: rabbit sera prepared against whole M protein
Assay: ELISA: peptide recognition by anti-M protein rabbit sera
Type: binding
Description: Overlapping peptides representing each M type were assessed for their immunogenicity using ELISA and dot-immunoblot.
Levels of anti-M protein antibodies in mouse sera were determined by an enzyme-linked immunosorbent assay (ELISA) using either synthetic peptides or whole M protein as antigen. Microtiter plates (DYNEX Immulon 2 HB) were coated with 10 μg/ml antigen in 10 mM phosphate-buffered saline (PBS) at 4° C. overnight. Plates were rinsed three times with wash buffer (0.05% Tween 20 in 10 mM PBS, pH 7.2) and blocked with 1% BSA in PBS for one hour at 37° C. The appropriate test sera were applied at a starting dilution of 1:1000 and serially diluted two fold down the plate in PBS. Plates were incubated at 37° C. for 30 minutes and subsequently rinsed three times. Goat anti-rabbit or goat anti-mouse Ig-peroxidase conjugate diluted 1:10,000 in PBS was added to all wells and incubated for two hours at 37° C. Plates were rinsed three times with wash buffer and freshly prepared TMB peroxidase (Kirkegaard and Perry Laboratories) was added. Reactions were quenched with 0.18 M H2SO4 after 30 minutes at room temperature and OD450 was measured with a Labsystems Multiskan plate reader using Ascent software. ELISA titers are expressed as the reciprocal of the last dilution which gave a reading OD450>0.10.
The immunoreactivity of several synthetic peptides was determined by ELISA using rabbit sera prepared against whole M protein. The synthetic peptides are representative of relatively small portions of the M protein N-terminus; therefore, it was advantageous to determine if the epitopes contained within particular peptides were immunoreactive with sera prepared against whole M protein. It was shown that the whole anti-M protein rabbit sera of the respective serotypes could bind to each of the synthetic peptides within that serotype. However, some peptides were more highly immunoreactive than others, thus being better suited for use in the animal studies.

Sequence	immunoreactivity by ELISA using rabbit sera prepared against whole M protein
CKKEAKLSEAELHDKIKNLEEEK [Peptide M2-2]	confirmed
CHEREKNDKLSSENEGLK [Peptide M101-3]	confirmed
CEELKVEREKYLSYADDKEKDPQ [Peptide M4-4]	confirmed
CLRQKEENDKLKLEKKGLETE [Peptide M43-4]	confirmed
CHDLKTKNEGLKTENEGLKTEN [Peptide M5-9]	confirmed
CKAWKSENDELRENYRKTLDK [Peptide M75-4]	confirmed
CELYNKIQELEEGKAELFDKLEK [Peptide M73-3]	confirmed
CDENKTLREKQEEYITKIQNE [Peptide M11-3]	confirmed
CKGTNVSADLYNSLWDENKT [Peptide M11-2]	confirmed
CQLYTKHIYTKHNSNYQQYNAQ [Peptide M3-10]	confirmed
CNGDGNPRVVIEDLAANNPAIQ [Peptide M1-7]	confirmed
CEGNARLAQAQEEALRDVLNN [Peptide M41-1]	confirmed
CTVTRGTVNDPQRAKEALDKYE [Peptide M5-5]	confirmed
CIRNIRLRHENKDLKARLENA [Peptide M1-5]	confirmed
CRVFPRGTVENPDKARELLNK [Peptide M6-1]	confirmed
CDLEEERGKLLNKLDKVEEEHK [Peptide M77-4]	confirmed
CKDEVLSKFSVPGHVWAHERE [Peptide M101-2]	confirmed
CLNKLDKVEEEHKKDHEQLEK [Peptide M77-5]	confirmed
CRGTVENPDKARELLNKYDVEN [Peptide M6-2]	confirmed
CVPVKKEATKLSEAELYNKIQ [st2967-2]	confirmed
CLNQVTQLHTKHNSNYQQYNA [Peptide M3-8]	confirmed
CRSDARSVNGEFPRHVKLKNE [Peptide M3-9]	confirmed
CREVTNELTASMWKAQADSAK [Peptide M58-2]	confirmed
CDSSSRDITEAGVSKFWKSKFD [Peptide M82-1]	confirmed

Sequence	immunoreactivity by ELISA using rabbit sera prepared against whole M protein
CQRAKAALDKYELENHDLKTKN [Peptide M5-4]	confirmed
CTEHEKLRDEYYTLIDAKLEEK [Peptide M28-4]	confirmed
CESKLINTLTDENEKLREELQQ [Peptide M22-3]	confirmed
CRSVSTNSGSVSTPYNNLLNE [Peptide M92-2]	confirmed
CESSNISQESKLINTLTDENEK [Peptide M22-2]	confirmed
CQELEEGKAELFDKLEKVEEE [Peptide M73-6]	confirmed
CENSMLQANNDNLTDQNKNLTD [Peptide M6-4]	confirmed
CQLRDPYAGAFRRNNELEKIIQE [Peptide M41-5]	confirmed
CKKEAKKLNEAELYNKIQELE [Peptide M73-2]	confirmed
CESSNNAESSNISQESKLINT [Peptide M22-1]	confirmed
CEEHPDVVAARESVLNNVR [Peptide M43-1]	confirmed
CRLAQAQEEALRDVLNNTPHN [Peptide M41-2]	confirmed
CHPDVVAARESVLNNVRVPGT [Peptide M43-2]	confirmed
CAESPKSTETSANGADKLAD [Peptide M28-1]	confirmed
CDKLADAYNTLLTEHEKLRDE [Peptide M28-3]	confirmed
CELPYEARYKAWKSENDELREN [Peptide M75-2]	confirmed
CEEASNNGQLTLQHKNNALTSE [Peptide M94-1]	confirmed
CDSDNSDNINRSVSVKDNEKE [Peptide M89-7]	confirmed
CLAQVTQLYTKHNSNYQQYNA [Peptide M3-7]	confirmed
CNGDGNPREVIEDLAANNPAIQ [Peptide M1-1]	confirmed
CENHDLKTKNEGLKTENEGLK [Peptide M5-3]	confirmed
CKAKELEKQVEEYKKNYETLEK [Peptide M58-3]	confirmed
CEAGVSKFWKSKFDAEQNRANE [Peptide M82-3]	confirmed
CKSTETSANGADKLADAYNTL [Peptide M28-2]	confirmed

Sequence	immunoreactivity by ELISA using rabbit sera prepared against whole M protein
CEIQNHQLTVENKKLKTDKEQ [Peptide M18-3]	confirmed
CTVTRGTINDPQRAKEALDKYE [Peptide M5-1]	confirmed
CKQRSELYLQQYYDNKSNRYK [Peptide M12-6]	confirmed
CAAPLTRATADNKDELIKRAND [Peptide M18-1]	confirmed
CDVLNNTPHNQLRDAYAGAFRR [Peptide M41-4]	confirmed
CEYDDLLAKHGELLSEYDALK [Peptide M92-3]	confirmed
CRVPGTLWLRQKEENDKLKLEK [Peptide M43-3]	confirmed
CDSSRDSSREVTNELTASMWK [Peptide M58-5]	confirmed
CENPDKARELLNKYDVENSMLQ [Peptide M6-3]	confirmed
CADHPSYTAAKDEVLSKFSVPGH [Peptide M101-1]	confirmed
CKNDKLSSENEGLKAGLQEKE [Peptide M101-5]	confirmed
CEKLREELQQYYALSDAKEEE [Peptide M22-6]	confirmed
CDNQSPAPVKKEAKKLNEAE [Peptide M73-1]	confirmed
CRATADNKDELIKRANDYEIQ [Peptide M18-2]	confirmed
CNGDGNPREVIEDLAANNPVIQ [Peptide M1-6]	confirmed
CEMQQRGTNFGPLLASTMRDNH [Peptide M33-3]	confirmed
CHEKVTQAREAVIREMQQRGT [Peptide M33-2]	confirmed
CIRLRHHENKDLKARLENAMEV [Peptide M1-8]	confirmed
CEEERTFTELPYEARYKAWKSE [Peptide M75-1]	confirmed
CDLLAKHGELLSEYDALKEKQDK [Peptide M92-4]	confirmed
CDSAWNWPKEYNALLKENEEL [Peptide M4-2]	confirmed
CTVTRGTVNDPQRAKETLDKYE [Peptide M5-6]	confirmed
